Reference: patent US20230071283A1, “COMPOSITIONS AND METHODS FOR SELECTIVE PROTEIN EXPRESSION” (Novartis AG, priority 2017, published 2023)
“Also recorded” adds a separate entry of the source.

Legend:
nontransduced T cells = test: AP20187 treatment of T cells not expressing inducible caspase-9; assay type: cell-based, human; conditions: 16 hours at 37° C.
Description: (§1) CAR T cells were incubated in the presence of the indicated concentrations of AP20187 for 16 hours at 37° C. Dead cells were detected with live/dead-violet dye and quantified by flow cytometry. Only T cells that expressed the inducible caspase were eliminated (FMC63 iC9 or CD19 sCAR, as well as iC9 control CAR).
(§2) Elimination of CD19 CAR T cells. CD19 sCAR T cells were incubated in the presence of the indicated concentrations AP20187 for 16 hours at 37° C. Dead cells were detected with live/dead-violet dye and quantified by flow cytometry.

CD19 sCAR T cells [1] = test: Elimination of CD19 sCAR T cells by AP20187 (live/dead-violet dye, flow cytometry); assay type: cell-based, human; conditions: 16 hours at 37° C.
Description: as §1, §2

[2] = molecular target: T1, ERαFD furin degron domain fused to an anti-CD19 scFv CAR (Homo sapiens, UniProt P03372, G521R/L384M/M421G/N519S/T371A/Y537S); test: CAR expression by FACS in Jurkat T cells transduced with ERαFD furin degron-anti-CD19 scFv CAR; assay type: cell-based; conditions: 1 μM, 24 hours
T1 construct: signal peptide (CD8 leader) followed by Arg-Ser linker (N); furin cleavage site (C); anti-CD19 scFv CAR (CD8 hinge, 4-1BB, CD3zeta) (C); expressed in transfected cells; host or cells: Jurkat T cells, lentiviral transduction
T1 sequence (P03372 305-549 T371A/L384M/M421G/N519S/G521R/Y537S): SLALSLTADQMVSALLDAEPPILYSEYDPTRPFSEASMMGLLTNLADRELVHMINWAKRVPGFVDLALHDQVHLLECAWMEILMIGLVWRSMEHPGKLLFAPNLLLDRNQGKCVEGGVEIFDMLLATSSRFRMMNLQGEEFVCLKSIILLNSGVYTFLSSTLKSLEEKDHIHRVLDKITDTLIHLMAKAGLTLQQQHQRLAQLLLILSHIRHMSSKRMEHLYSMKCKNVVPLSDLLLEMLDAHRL

universal sCAR T cells = test: Depletion of universal sCAR T cells by AP1903 in BT mice (qPCR, peripheral blood); assay type: in vivo; conditions: 4 weeks after AP1903 treatment (3 daily injections with 10 mg/kg)
Description: FIG. 44 is a schematic timeline of the experimental design of the in vivo experiment of the present invention. Using BT (bone marrow, liver, and thymus) mice for assessment of universal sCAR function in a non-oncology mouse model. Human fetal bone marrow and thymus were implanted into NSG mice on day −91. Validation of engraftment was done by flow cytometry on day −27. Universal T cells expressing CD19 sCAR T cells were injected on day 0, B cell depletion was assessed on day 10 and mice were treated with AP1903 (3 daily injections with 10 mg/kg). sCAR survival was assessed with qPCR.
A qPCR from peripheral blood WPRE copy number was performed with a gDNA, 4 weeks after AP1903 treatment.

CD19 sCAR T cells [3] = test: In vivo depletion of CD19 sCAR T cells by AP1903 in Nalm6-injected mice
Description: FIG. 40 is a series of flow cytometry graphs depicting that the suicide activation results in pheripheral depletion of the suicide CAR T cells. Mice were injected with Nalm6 cells and after 5 days were treated with 19 s CAR T cells. CD19s CAR T cells were sorted before injection based on scFV expression. Flow plots show peripheral T cells (CD3+, CD45+) on day 8 and day 26. CD19 sCAR T cells were depleted on day 10 by injection of AP1903 (10 mg/kg).
The quantification of T cells was done from several mice. Mice were treated with AP1903 on day 10 to deplete sCAR T cells.

CD19rev CAR T cells = test: Titration of Shield-1 in CD19rev CAR T cells (remaining CAR+ cells, flow cytometry); assay type: cell-based; conditions: different doses of Shield-1 for 24 h
Description: FIG. 37 is a series of flow cytometry graphs depicting the titration of Shield-1 in CD19rev CAR. CD19rev CAR T cells (˜38% transduced) were incubated in different doses of Shield-1 for 24 h to assess dose-dependent caspase-9 acitvation. The remaining CAR+ cells were quantified by flow cytometry.

CD20 on-CAR = CD20 on-CAR surface expression (MFI, flow cytometry) versus Shield-1 concentration; assay type: cell-based
Excerpt: FIG. 36 is series of graphs illustrating the modulation of CAR surface expression with FKBP ligand Shield-1. CD20 on-CAR T cells were stained for CAR expression and the mean fluorescence intensity (MFI, assessed by flow cytometry) of the CAR signal was plotted against the Shield-1 concentration. […] Absence of Shield-1 results in ˜60% reduction of CD20 on-CAR expression (bottom graph).

[4] = molecular target: T2, FKBPFD furin degron domain fused to an anti-CD19 scFv CAR (Homo sapiens, UniProt P62942, F37V); test: CAR expression by FACS in Jurkat T cells transduced with FKBPFD furin degron-anti-CD19 scFv CAR; assay type: cell-based; conditions: 1 μM Shield1
T2 construct: signal peptide (CD8 leader) (N); furin cleavage site (C); anti-CD19 scFv CAR (CD8 hinge, 4-1BB, CD3zeta) (C); expressed in transfected cells; host or cells: Jurkat T cells, lentiviral transduction
Description: The scFvs used in the CAR constructs that were assessed in Examples 3 were independently synthesized based on an anti-CD19 scFv sequence described above. […] The proteins used in the furin-degron constructs that were assessed in Examples 4-5 were independently synthesized based on publicly available sequence data.
Jurkat cell lines were transduced by spinoculation with lentiviral supernatant from 293T cells transfected with pELPS using the protein-furin domain regulated plasmid DNA.
Trimethoprim (TMP) was resuspended in DMSO. In all instances where concentrations not indicated, compounds were added for 24 hours in total prior to analysis by flow cytometry.
FKBPFD transduced cells treated with 1 μM Shield1. ERαFD transduced cells treated with 1 μM Bazedoxifene. DHFRFD transduced cells treated with 1 mM TMP. […] Black=UTD; Gray=construct, no compound; White=construct, compound.

CD19+ NALM6 cells = test: Proliferation assay in co-culture with target cells (FACS, counting beads); conditions: presence or absence of bazedoxifene; 4 days; versus parental CAR19
[5] = system: NALM6, a CD19+ target cell line; test: Cytokine secretion in co-culture with target cells; conditions: presence or absence of bazedoxifene; 20 hours; versus parental CAR19

T2 sequence (P62942 with tags, fused parts or gaps F37V): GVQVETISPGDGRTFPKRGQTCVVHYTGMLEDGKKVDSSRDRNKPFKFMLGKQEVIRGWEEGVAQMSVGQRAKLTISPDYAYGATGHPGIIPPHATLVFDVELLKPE

In the case of `CC[C@H](C(=O)N1CCCC[C@H]1C(=O)O[C@H](CCc1ccc(OC)c(OC)c1)c1cccc(OCC(=O)NCC(CNC(=O)COc2cccc([C@@H](CCc3ccc(OC)c(OC)c3)OC(=O)[C@@H]3CCCCN3C(=O)[C@@H](CC)c3cc(OC)c(OC)c(OC)c3)c2)CN(C)C)c1)c1cc(OC)c(OC)c(OC)c1` [AP20187], the “Cell death after AP20187” value (nontransduced T cells) is reported as “no cell death” and the “Cell death after AP20187” value (CD19 sCAR T cells [1]) is reported as “specifically killed; also recorded: specific and robust elimination of CD19 sCAR T cells”.

In the case of `Oc1ccc2c(c1)CC[C@H](c1ccccc1)[C@@H]2c1ccc(OCCN2CCCC2)cc1` [Lasofoxifene], the “CAR 19 expression” value [2] is reported as “can induce CAR 19 expression”.

In the case of `CC[C@H](C(=O)N1CCCC[C@H]1C(=O)O[C@H](CCc1ccc(OC)c(OC)c1)c1cccc(OCC(=O)NCCNC(=O)COc2cccc([C@@H](CCc3ccc(OC)c(OC)c3)OC(=O)[C@@H]3CCCCN3C(=O)[C@@H](CC)c3cc(OC)c(OC)c(OC)c3)c2)c1)c1cc(OC)c(OC)c(OC)c1` [AP1903], the “sCAR T cells in peripheral blood (qPCR, WPRE copy number)” value (universal sCAR T cells) is reported as “can be depleted with AP1903 treatment; also recorded: near-total sCAR absence in 2/3 mice”, the “T cells in spleen (human CD3 staining)” value (CD19 sCAR T cells [3]; >2 weeks after AP1903 treatment) is reported as “T cells are not detectable” and the “Peripheral T cells (CD3+, CD45+)” value (CD19 sCAR T cells [3]; AP1903 10 mg/kg on day 10, versus vehicle, 10 mg/kg) is reported as “T cells are hardly detectable after suicide activation; also recorded: the T cell percentages drop in the AP1903 group”. For the same molecule, the “sCAR T cells in spleen (quantitative PCR)” value (CD19 sCAR T cells [3]; AP1903 versus vehicle treated mice) was “near-total sCAR absence in most mice”.

In the case of `CC[C@H](C(=O)N1CCCC[C@H]1C(=O)O[C@H](CCc1ccc(OC)c(OC)c1)c1cccc(OCCN2CCOCC2)c1)c1cc(OC)c(OC)c(OC)c1` [Shield1, Shield-1], the “caspase-9 activation and apoptosis (proportion of CAR+ cells)” value (CD19rev CAR T cells) is reported as “lower doses of Shield-1 result in higher caspase-9 activation and increased apoptosis”, the “CAR expression (MFI) versus Shield-1 concentration” value (CD20 on-CAR; CD20 on-CAR T cells) is reported as “dose-dependent increase in CAR expression” and the “reduction of CD20 on-CAR expression” value (CD20 on-CAR; absence of Shield-1) is reported as roughly 60%. The “Expression of the anti-CD19 scFv” value [4] was “inducible in the presence of compound; also recorded: inducible by the stabilizing compound” and the “Kinetics of CAR expression following compound addition” value [4] was “occurs rapidly following compound addition and is stable throughout the period of compound treatment”.

B1: construct #106: ERα furin degron (ERmut1) fused to anti-CD19 scFV CAR; furin site GTGAEDPRPSRKRRSLGDVG (SEQ ID NO: 125) (protein)
chain: RSSLALSLTADQMVSALLDAEPPILYSEYDPTRPFSEASMMGLLTNLADRELVHMINWAKRVPGFVDLALHDQVHLLECAWMEILMIGLVWRSMEHPGKLLFAPNLLLDRNQGKCVEGGVEIFDMLLATSSRFRMMNLQGEEFVCLKSIILLNSGVYTFLSSTLKSLEEKDHIHRVLDKITDTLIHLMAKAGLTLQQQHQRLAQLLLILSHIRHMSSKRMEHLYSMKCKNVVPLSDLLLEMLDAHRLGTGAEDPRPSRKRRSLGDVGEIVMTQSPATLSLSPGERATLSCRASQDISKYLNWYQQKPGQAPRLLIYHTSRLHSGIPARFSGSGSGTDYTLTISSLQPEDFAVYFCQQGNTLPYTFGQGTKLEIKGGGGSGGGGSGGGGSQVQLQESGPGLVKPSETLSLTCTVSGVSLPDYGVSWIRQPPGKGLEWIGVIWGSETTYYSSSLKSRVTISKDNSKNQVSLKLSSVTAADTAVYYCAKHYYYGGSYAMDYWGQGTLVTVSSTTTPAPRPPTPAPTIASQPLSLRPEACRPAAGGAVHTRGLDFACDIYIWAPLAGTCGVLLLSLVITLYCKRGRKKLLYIFKQPFMRPVQTTQEEDGCSCRFPEEEEGGCELRVKFSRSADAPAYKQGQNQLYNELNLGRREEYDVLDKRRGRDPEMGGKPRRKNPQEGLYNELQKDKMAEAYSEIGMKGERRRGKGHDGLYQGLSTATKDTYDALHMQALPPR
For B1, the Proliferation (CD19+ NALM6 cells) was “proliferate in the presence of CD19+ tumor cells, in a manner that is stabilizing compound-dependent and is noninferior to the parental CAR19 construct” and the “levels of IFNγ” value [5] was “secrete IFNγ in the presence of CD19+ tumor cells, in a manner that is stabilizing compound dose-dependent and is noninferior to the parental CAR construct”.
